The text below walks through data of ChEMBL document CHEMBL5360549, “Recent advances in the development of methyltransferase (MTase) inhibitors against (re)emerging arboviruses diseases dengue and Zika” (Eur J Med Chem, 2023).

A short description of data set [1]: Inhibition of Dengue virus 3 guanine-N7 methyltransferase assessed as inhibition constant. Further details: species or system dengue virus type 3.
Data set [2] in a line: Inhibition of Dengue virus 3 nucleoside-2'O-methyltransferase assessed as inhibition constant. The arrangement: species or system dengue virus type 3.
Data set [3] can be described thus: Binding affinity to Zika virus NS5-methyltransferase assessed as dissociation constant by isothermal titration microcalorimetry method. A general note: ITC needs no label: the signal is the heat of the interaction.
For data set [4], the system named is Zika virus. As to the kind of experiment: Antiviral activity against Zika virus infected in African green monkey Vero cells assessed as reduction in viral plaques by plaque reduction assay. The class given is functional, organism-based.
A short description of data set [5]: Inhibition of Zika virus NS5-methyltransferase using GpppAC4 and [3H]AdoMet as substrate incubated for 30 mins by liquid scintillation counter analysis.
The test system of data set [6] is Zika virus. Put plainly: Inhibition of Zika virus NS5-methyltransferase at 50 uM using GpppAC4 and [3H]AdoMet as substrate incubated for 30 mins by liquid scintillation counter analysis relative to control.
Data set [7] can be described thus: Inhibition of Dengue virus NS5-methyltransferase using GpppAC4 and [3H]AdoMet as substrate incubated for 30 mins by liquid scintillation counter analysis.
Data set [8] concerns the target T1, mRNA cap guanine-N(7) methyltransferase (Homo sapiens, UniProt O43148). As to the kind of experiment: Inhibition of human RNMT using GpppAC4 and [3H]AdoMet as substrate incubated for 30 mins by liquid scintillation counter analysis.
Data set [9] concerns the target T1, mRNA cap guanine-N(7) methyltransferase. As to the kind of experiment: Inhibition of human RNMT assessed as inhibition constant.
Data set [10] concerns Zika virus. As to the kind of experiment: Antiviral activity against Zika virus. The format is functional, organism-based.
In data set [11] the test system is dengue virus type 4. As to the kind of experiment: Antiviral activity against Dengue virus 4 infected in asian tiger mosquito C6/36 cells assessed as reduction in virus replication by methyleneblue staining based analysis. The format is functional, organism-based.
Data set [12] is described as follows: Cytotoxicity against human A549 cells assessed as reduction in cell growth measured after 24 hrs by MTT assay. The class given is toxicity, cell-based.
In data set [13] the test system is dengue virus type 2. Put plainly: Antiviral activity against Dengue virus 2 infected in asian tiger mosquito C6/36 cells assessed as reduction in virus replication by methyleneblue staining based analysis. The class given is functional, organism-based.
For data set [14], the system named is dengue virus type 1. Put plainly: Antiviral activity against Dengue virus 1 infected in asian tiger mosquito C6/36 cells assessed as reduction in virus replication by methyleneblue staining based analysis. The format is functional, organism-based.
Data set [15] in a line: Cytotoxicity against human Huh-7 cells assessed as reduction in cell growth measured after 24 hrs by MTT assay. The format is toxicity, cell-based. In general terms: Tetrazolium assays rely on reduction of a dye to a coloured formazan, in cell work by metabolically active cells.
The nature of data set [16]: Cytotoxicity against HEK293T cells assessed as reduction in cell growth measured after 24 hrs by MTT assay. The class given is toxicity, cell-based, HEK-293T. To be noted: human.
The nature of data set [17]: Cytotoxicity against hamster BHK-21 cells assessed as reduction in cell growth measured after 24 hrs by MTT assay. The class given is toxicity, cell-based, Mesocricetus auratus.
Data set [18] deals with T1, mRNA cap guanine-N(7) methyltransferase. As to the kind of experiment: Inhibition of human RNMT at 50 uM using polyU as substrate incubated for 10 mins in presence of [3H] ATP and ATP by liquid scintillation counter analysis relative to control.
The test system of data set [19] is dengue virus type 2. As to the kind of experiment: Inhibition of Dengue virus 2 NS5-methyltransferase at 50 uM by HTRF assay relative to control. (In general: Time-resolved FRET reads energy transfer from a long-lived donor to a nearby acceptor.)

The structures appear in SMILES notation.

One may read the Ki as a dissociation constant, usually derived from enzyme kinetics or from competition with a known ligand. As usually defined, the Kd is a measure of binding affinity in units of concentration. The term EC50 denotes the concentration needed to bring the measured effect to its halfway point. The IC50 is the concentration that gives 50% inhibition. A word on the inhibition: it is how much of the control response was suppressed. The CC50 is the concentration giving 50% cytotoxicity.

T1 sequence (O43148 whole entry): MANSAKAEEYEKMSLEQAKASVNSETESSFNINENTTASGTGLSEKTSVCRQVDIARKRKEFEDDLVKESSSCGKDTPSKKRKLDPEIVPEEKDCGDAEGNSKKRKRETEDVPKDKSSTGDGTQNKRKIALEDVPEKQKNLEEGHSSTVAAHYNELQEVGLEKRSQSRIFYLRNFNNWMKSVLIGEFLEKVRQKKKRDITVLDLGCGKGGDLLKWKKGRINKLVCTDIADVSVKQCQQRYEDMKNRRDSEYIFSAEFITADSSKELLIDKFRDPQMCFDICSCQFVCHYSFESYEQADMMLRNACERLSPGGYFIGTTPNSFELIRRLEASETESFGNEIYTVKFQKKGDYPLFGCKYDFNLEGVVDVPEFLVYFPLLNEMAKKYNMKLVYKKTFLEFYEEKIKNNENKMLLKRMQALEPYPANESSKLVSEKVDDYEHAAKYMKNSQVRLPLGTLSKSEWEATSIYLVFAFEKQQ

Regarding `N[C@H](CCSC[C@H]1O[C@@H](n2cnc3c(NC4CC4)ncnc32)[C@H](O)[C@@H]1O)C(=O)O`, the Ki in [1] was 770 nM; in [2], 150 nM.
As to `C[S+](CC[C@H](N)C(=O)[O-])C[C@H]1O[C@@H](n2cnc3c(N)ncnc32)[C@H](O)[C@@H]1O` (stereo partly specified) [ADEMETIONINE], the Kd in [3] is 2.58 µM.
As for `CNc1ncnc2c1ncn2[C@@H]1O[C@H](CSCC[C@@H](N)C(=O)O)[C@@H](O)[C@H]1O`, the results for the Ki in data set [1] and in [2] were 770 nM and 150 nM, respectively.
For `Nc1ncnc2c1ncn2[C@@H]1O[C@H](CN(CCC(N)C(=O)O)Cc2ccc(F)cc2)[C@@H](O)[C@H]1O` (stereo partly specified), the Kd in data set [3] is 24.3 µM.
For `COCCCNC(=O)c1ccc(Cn2c(=O)c3ccccc3n(CC(=O)NCCc3ccc(OC)c(OC)c3)c2=O)cc1`, the EC50 in [4] is 12.5 µM.
Regarding `N[C@H](CCSC[C@H]1O[C@@H](n2cnc3c(NCCc4ccccc4)ncnc32)[C@H](O)[C@@H]1O)C(=O)O`, the inhibition constant (Ki) was 770 nM in data set [1] and 150 nM in data set [2].
As to `O=C1c2cccc3cccc(c23)C(=O)N1CCc1ccc(S(=O)(=O)N2CCN(c3ccccc3)CC2)cc1`, in data set [4], the EC50 turned out to be 4.8 µM.
Turning to `N[C@H](CCSC[C@H]1O[C@@H](n2cnc3c(NCc4cccc(F)c4)ncnc32)[C@H](O)[C@@H]1O)C(=O)O`, the Ki in [1] came out at 770 nM; in [2], 150 nM.
Consider `Cc1ccc(CNc2ncnc3c2ncn3[C@@H]2O[C@H](CSCC[C@@H](N)C(=O)O)[C@@H](O)[C@H]2O)cc1`, for which the Ki in data set [1] was 770 nM; in [2], 150 nM.
For the compound `Cc1ccccc1CNc1ncnc2c1ncn2[C@@H]1O[C@H](CSCC[C@@H](N)C(=O)O)[C@@H](O)[C@H]1O`, the Ki was 770 nM in data set [1] and 150 nM in data set [2].
Consider `Cc1cccc(CNc2ncnc3c2ncn3[C@@H]2O[C@H](CSCC[C@@H](N)C(=O)O)[C@@H](O)[C@H]2O)c1`, for which the Ki amounted to 770 nM in [1] and 150 nM in [2].
For the compound `COc1ccc(NC(=O)Nc2ccc3c(c2)c2ccccc2n3CCc2ccccc2)c(OC)c1`, half-maximal inhibition in data set [5] (IC50) was put at 23 µM. The same compound gave an inhibition in data set [6] of 30%.
Take `N[C@H](CCSC[C@H]1O[C@@H](n2cnc3c(NCc4cccc(Cl)c4)ncnc32)[C@H](O)[C@@H]1O)C(=O)O`: the Ki in data set [1] was 820 nM; in [2] it was 170 nM.
As to `Nc1ncnc2c1ncn2[C@@H]1O[C@H](C[C@@H](N)CC[C@H](N)C(=O)O)[C@@H](O)[C@H]1O` [SINEFUNGIN], the values for the IC50 in data set [7] and in [8] were 1.18 µM and 5.3 µM, respectively.
Consider `Cc1ccnc(NS(=O)(=O)c2ccc(NC(=O)c3ccc(S(=O)(=O)N4CCc5ccccc5C4)cc3)cc2)n1`, for which, in data set [4], the EC50 was determined as 17.6 µM.
Regarding `Cc1ccc2c(c1)c(=O)c(C(=O)c1ccccc1)cn2CC(=O)Nc1ccccc1C`, in data set [4], the half-maximal effective concentration (EC50) came to 17.5 µM.
For `Nc1ncnc2c1ncn2[C@@H]1O[C@H](CSCC[C@H](N)C(=O)O)[C@@H](O)[C@H]1O` [S-ADENOSYLHOMOCYSTEINE], the Ki was 3190 nM in data set [1], greater than 50 µM in [9] and 570 nM in data set [2].
On to `N[C@H](CCSC[C@H]1O[C@@H](n2cnc3c(Nc4ccccc4)ncnc32)[C@H](O)[C@@H]1O)C(=O)O`, for which the Ki in [1] came to 770 nM; in data set [2], 150 nM.
As to `CCn1c2ccccc2c2cc(NC(=O)Nc3ccc([N+](=O)[O-])cc3C)ccc21`, the IC50 stood at 35 µM in data set [5] and 38 µM in data set [7]. Besides, in data set [6], the inhibition amounted to 30%. In addition, in [10], the EC50 was greater than 3.99 µM.
Take `N[C@H](CCSC[C@H]1O[C@@H](n2cnc3c(NCc4cccc(Br)c4)ncnc32)[C@H](O)[C@@H]1O)C(=O)O`: the Ki in [1] was found to be 770 nM; in data set [2], 150 nM.
Turning to `N[C@H](CCSC[C@H]1O[C@@H](n2cnc3c(NCc4ccccc4)ncnc32)[C@H](O)[C@@H]1O)C(=O)O`, the Ki in data set [1] was 770 nM; in data set [2] it was 150 nM.
In turn, `O=C(Nc1ccc(I)cc1)Nc1ccc2c(c1)c1ccccc1n2Cc1ccccc1` displayed an IC50 in [5] of 23 µM. Also, the inhibition in [6] came to 30%.
Regarding `CCC(/C(C)=C/c1cc(OC)c(OC)cc1OC)c1cc(OC)c(OC)cc1OC` (stereo unspecified), the 50% effective concentration (EC50) worked out at 4.54 µM in data set [11], 4.5 µM in data set [13] and 4.27 µM in [14]. In addition, the CC50 at 24 h in [12], in data set [15], in [16] and in data set [17] was greater than 80 µM each time.
`COc1ccc(NC(=O)Nc2ccc3c(c2)c2ccccc2n3Cc2ccccc2)c(OC)c1` registered an IC50 in [5] of 23 µM. The compound also had an inhibition in data set [6] of 30%.
As for `N[C@H](CCSC[C@H]1O[C@@H](n2cnc3c(NCc4cccc(I)c4)ncnc32)[C@H](O)[C@@H]1O)C(=O)O`, the Ki is 770 nM in data set [1] and 150 nM in data set [2].
`Cc1cc(/C=C/c2ccc3cc(N(C)C)ccc3[n+]2C)c(C)n1-c1ccccc1`: the results for the inhibition in data set [18] and in data set [19] were 98.6% and 97.8%, respectively.
Regarding `CCCCCCCCCCCCCCCC[N+](C)(C)CCN(Cc1ccc(OC)cc1)c1ncccn1`, the inhibition in [18] is 96%; in data set [19], 98.6%.
